Tested on: circulating tumor cell (CTC)
Experiment: CTC obtainment test (CTCs-inducing ability / CTC yield efficiency) by culture of patient PBMCs in test culture media
Type: cell-based, human
Conditions: additive component study
Description: Examples of the present invention followed experimental methods given below. Specifically, all experimental samples (peripheral blood from various cancer patients who donated blood) were aseptically treated by procedures given below. In the case where infections by various viruses such as HBV and HCV were found in advance according to information from each cooperating facility, the treatment thereof was tested aside from a non-infected group and proper medical waste treatment was carried out by medical waste treatment professionals. 1. A disposable 30 ml syringe for blood collection containing an appropriate amount of an anticoagulant heparin sodium (0.05 ml) was provided, and a disposable 30 ml blood collection syringe for serum procurement containing no heparin sodium was also provided. These syringes were respectively connected to insertion ports of L-type 180° three-way stopcock, while an appropriate 18-, 21- or 24-gauge butterfly needle was connected to the vascular vessel side to prepare for blood collection. 30 ml of blood per each sample was collected, and the following separation operation was carried out. 2. For serum collection, the blood collection syringe barrel with a needle put thereon was placed at 37° C. for 1 hour in a 5% CO2 incubator, followed by centrifugation at 3,000 rpm (800 G) at 4° C. for 30 minutes. […]

Substance: lipopolysaccharide [LPS]
- CTC-inducing effect: slightly observed

Source: patent US20190049456A1, “METHOD FOR DETECTING OR SEPARATING/OBTAINING CIRCULATING TUMOR CELL EMPLOYING CELL PROLIFERATION METHOD” (priority 2016, published 2019)
